Experimental data: patent publication US8889662B2, “Method to alter sex ratios in avian offspring” (University of Georgia Research Foundation, Inc., priority 2009, dated 2014)

What was measured:
[1] = system: zebra finch (Taeniopygia guttata); test: Example 2: disruption of ovulation, oviposition and embryo development after injection, zebra finches; format: in vivo; details: 20 ug injection
Procedure: Zebra finch (Taeniopygia guttata) pairs obtained from a breeding colony maintained at The University of Georgia were housed in individual cages and provided feed and water ad libidumn. Birds were kept under a 14 hour (h) light (L):10 h dark (D) light schedule. Egg-laying was monitored daily and eggs marked to record sequence order. Females were injected intraperitoneally after the first or second egg of the clutch was laid with one of three treatments: 20 μg of CORT dissolved in 50 μl peanut oil and 10% ethanol (CORT), 20 μg of progesterone dissolved in […] and 10% ethanol (P), or 50 μl of control peanut oil (C). A fourth set of females received no injection treatment (UN). […] The follicle ovulating 5 hours after injection, was laid approximately 36 hours after injection (FIG. 3). Ovulating follicles exposed to treatments were laid as the 3rd or 4th egg in the sequence (3rd egg if treatment was administered on the day the 1st egg was laid and the 4th egg in the sequence if treatment was administered on the day the 2nd egg was laid). Eggs were allowed to incubate in the nest for 8-12 days prior to collection to allow sufficient embryonic development for DNA extraction and molecular sexing analyses. Occasionally these treatments disrupted the oviposition immediately following the injection. Females that delayed oviposition after treatment were excluded from analysis because it was not possible to determine whether the egg collected the following day was from the ovulation event that occurred immediately following injection or from a delayed oviposition of the follicle ovulated the day prior to injection. Females that delayed oviposition were allowed to complete the clutch after which the treatment was repeated during the next clutch. […] Only 1/10 females treated with progesterone laid successfully. For this reason, progesterone treatments were eliminated from further analyses.

female chickens = details: at the time of meiotic segregation, Correa et al. 2005; cited from earlier work
[2] = system: zebra finches and pigeons; details: literature; cited from earlier work

CC(=O)[C@H]1CC[C@H]2[C@@H]3CCC4=CC(=O)CC[C@]4(C)[C@H]3CC[C@]12C [progesterone]
eggs with delayed oviposition [1]: 5 eggs
eggs with no visible development [1]: 4 eggs
females in which ovulation and oviposition were disrupted [1]: 90%
females that laid successfully ([1]; number of treated females): 1/10
sex ratio after acute progesterone treatment (female chickens): induced a sex ratio skew towards females

C[C@]12CC[C@H]3[C@@H](CCC4=CC(=O)CC[C@@]43C)[C@@H]1CC[C@@H]2O [testosterone]
sex ratio after testosterone treatment [2]: induced a skew towards males
